Test results as given in patent US10662138B2, “Herbicidal propynyl-phenyl compounds” (Syngenta Participations AG, priority 2014, dated 2020).

How the values were obtained:
Type in all cases: in vivo
Amaranthus retroflexus = assay: Glasshouse assay for herbicidal activity, post-emergence, AMARE; details: Amaranthus retroflexus, 312 h, 250 g/ha, visual 13 days after application, 100%=total damage, read-out: Percentage phytotoxicity AMARE
Protocol: (§1) Seeds of a variety of test plant species were sown in standard soil ** in pots. After cultivation for one day (pre-emergence) or after 8 days cultivation (post-emergence) under controlled conditions in a glasshouse (at 24/16° C., day/night; 14 hours light; 65% humidity), the plants were sprayed with an aqueous spray solution derived from the formulation of the technical active ingredient (the test herbicide) in acetone/water (50:50) solution containing 0.5% Tween 20 (polyoxyethylene sorbitan monolaurate, CAS Reg. No. 9005-64-5). The test plants were then grown on under controlled conditions in a glasshouse (at 24/16° C., day/night; 14 hours light; 65% humidity) and watered twice daily. 13 Days after application of the test herbicide, for pre- and post-emergence, the test was evaluated visually for percentage phytotoxicity to each plant (where 100%=total damage to plant; 0%=no damage to plant). Generally, each test herbicide is only tested on 1 plant per plant species for each application rate tested and for each application timing. The “standard soil” in Biological Example 1 is usually a “sand” or “sandy loam” type of soil. Biological Example 1—Post-Emergence Application—Herbicidal Activity Results (Percentage Phytotoxicity) Dicotyledonous weeds: ABUTH=Abutilon theophrasti; AMARE=Amaranthus retroflexus. Grassy monocotyledonous weeds: SETFA=Setaria faberi; ALOMY=Alopecurus myosuroides; ECHCG=Echinochloa crus-galli; ZEAMX=Zea mays (corn, maize, e.g. volunteer corn).

Echinochloa crus-galli = assay: Glasshouse assay for herbicidal activity, post-emergence, ECHCG; details: Echinochloa crus-galli, 312 h, 250 g/ha, visual 13 days after application, 100%=total damage, read-out: Percentage phytotoxicity ECHCG
Protocol: as §1

Alopecurus myosuroides = assay: Glasshouse assay for herbicidal activity, post-emergence, ALOMY; details: Alopecurus myosuroides, 312 h, 250 g/ha, visual 13 days after application, 100%=total damage, read-out: Percentage phytotoxicity ALOMY
Protocol: as §1

Setaria faberi = assay: Glasshouse assay for herbicidal activity, post-emergence, SETFA; details: Setaria faberi, 312 h, 250 g/ha, visual 13 days after application, 100%=total damage, read-out: Percentage phytotoxicity SETFA
Protocol: as §1

Abutilon theophrasti = assay: Glasshouse assay for herbicidal activity, post-emergence, ABUTH; details: Abutilon theophrasti, 312 h, 250 g/ha, visual 13 days after application, 100%=total damage, read-out: Percentage phytotoxicity ABUTH
Protocol: as §1

[1] = test system: Zea mays (corn, maize, e.g. volunteer corn); assay: Glasshouse assay for herbicidal activity, post-emergence, ZEAMX; details: Zea mays, 312 h, 250 g/ha, visual 13 days after application, 100%=total damage, read-out: Percentage phytotoxicity ZEAMX
Protocol: as §1

Compound	pest or weed control at 250 g/ha (Amaranthus retroflexus)	pest or weed control at 250 g/ha (Echinochloa crus-galli)	pest or weed control at 250 g/ha (Alopecurus myosuroides)	pest or weed control at 250 g/ha (Setaria faberi)	pest or weed control at 250 g/ha (Abutilon theophrasti)	pest or weed control at 250 g/ha [1]
CC#Cc1ccc(C2C(=O)C3CCC(C3)C2=O)c(CCC)c1 (stereo not drawn) [Compound A16, 3-(2-propyl-4-prop-1-ynyl-phenyl)bicyclo[3.2.1]octane-2,4-dione]	0%	100%	100%	100%	0%	100%
CC#Cc1ccc(C2C(=O)C3CCC(C3)C2=O)c(CC)c1 (stereo not drawn) [Compound A17]	0%	100%	100%	90%	50%	100%
CC#Cc1ccc(C2=C(OC(C)=O)C3CCC(C3)C2=O)c(OC)c1 (stereo not drawn) [Compound P1, [3-(2-methoxy-4-prop-1-ynyl-phenyl)-4-oxo-2-bicyclo[3.2.1]oct-2-enyl] acetate]	20%	100%	100%	90%	10%	100%
C#CCOC1=C(c2ccc(C#CC)cc2OC)C(=O)C2CCC1C2 (stereo not drawn) [Compound P2, 3-(2-methoxy-4-prop-1-ynyl-phenyl)-2-prop-2-ynoxy-bicyclo[3.2.1]oct-2-en-4-one]	0%	90%	70%	80%	0%	100%
C=CCOC1=C(c2ccc(C#CC)cc2OC)C(=O)C2CCC1C2 (stereo not drawn) [Compound P3]	10%	100%	70%	90%	0%	100%
CC#Cc1ccc(C2=C(OCOC)C3CCC(C3)C2=O)c(OC)c1 (stereo not drawn) [Compound P4]	0%	100%	100%	100%	10%	100%
CC#Cc1ccc(C2=C(OC(=O)c3ccc(F)cc3)C3CCC(C3)C2=O)c(OC)c1 (stereo not drawn) [Compound P5]	30%	100%	90%	90%	50%	100%
CC#Cc1ccc(C2=C(OC(=O)CC)C3CCC(C3)C2=O)c(OC)c1 (stereo not drawn) [Compound P6]	40%	100%	90%	90%	60%	100%
CC#Cc1ccc(C2=C(OC(=O)OC)C3CCC(C3)C2=O)c(OC)c1 (stereo not drawn) [Compound P7]	30%	100%	90%	90%	40%	100%
CC#Cc1ccc(C2=C(OC(=O)OCC)C3CCC(C3)C2=O)c(OC)c1 (stereo not drawn) [Compound P8]	20%	100%	90%	90%	60%	100%
CC#Cc1ccc(C2=C(OC(=O)C(C)C)C3CCC(C3)C2=O)c(OC)c1 (stereo not drawn) [Compound P10]	40%	100%	90%	90%	70%	100%
CC#Cc1ccc(C2=C(OC(=O)C(C)(C)C)C3CCC(C3)C2=O)c(OC)c1 (stereo not drawn) [Compound P11]	20%	100%	90%	100%	70%	100%
CC#Cc1ccc(C2=C(OC(=O)c3ccccc3)C3CCC(C3)C2=O)c(OC)c1 (stereo not drawn) [Compound P12]	20%	100%	100%	90%	70%	100%
CC#Cc1ccc(C2=C(OC(=O)Sc3ccccc3)C3CCC(C3)C2=O)c(OC)c1 (stereo not drawn) [Compound P13]	60%	100%	90%	100%	40%	100%
CC#Cc1ccc(C2=C(OC(=O)SCC)C3CCC(C3)C2=O)c(OC)c1 (stereo not drawn) [Compound P14]	20%	100%	90%	100%	70%	100%
CC#Cc1ccc(C2=C(OC(=O)SC(C)C)C3CCC(C3)C2=O)c(OC)c1 (stereo not drawn) [Compound P15]	10%	100%	90%	100%	70%	100%
CC#Cc1ccc(C2=C(OS(C)(=O)=O)C3CCC(C3)C2=O)c(OC)c1 (stereo not drawn) [Compound P16]	40%	90%	80%	70%	40%	100%
CC#Cc1ccc(C2=C(OS(=O)(=O)CC)C3CCC(C3)C2=O)c(OC)c1 (stereo not drawn) [Compound P17]	0%	90%	90%	80%	70%	100%
C=CC(=O)OC1=C(c2ccc(C#CC)cc2OC)C(=O)C2CCC1C2 (stereo not drawn) [Compound P18]	30%	100%	90%	90%	70%	100%
